Measurements reported in US20110003757A1, “PHARMACEUTICAL COMPOSITIONS FOR TREATING FATTY LIVER DISEASE” (ASTELLAS PHARMA INC., priority 2008, published 2011).

Assays:
KK-A^y mice = assay: Liver triglyceride content in nonalcoholic simple fatty liver model (KK-A^y mice); type: in vivo; conditions: for Effect on liver triglyceride content (in words): versus vehicle; for Liver triglyceride content: mean±standard error
Protocol: KK-A^y mice (female, purchased from CLEA Japan, Inc.) were used. The mice were fed with CMF (for special breeding, purchased from Oriental Yeast Co., Ltd., Japan) ad libitum. At 14 weeks of age, they were measured for their body weight, blood glucose levels, plasma insulin levels, plasma triglyceride levels and plasma alanine aminotransferase (ALT), and then divided into two groups such that these items were equal between the groups (8 animals per group). The first group was administered with vehicle (0.5% methylcellulose) at a dose of 10 mL/kg, and the second group was administered with a choline salt of (1S)-1,5-anhydro-1-[5-(azulen-2-ylmethyl)-2-hydroxyphenyl]-D-glucitol (i.e., a choline salt of Compound A) at a dose of 3 mg/kg (calculated as Compound A), each being administered orally once a day for 2 weeks. On the day following the final administration, the liver was collected from each mouse under ether anesthesia, frozen in liquid nitrogen and then stored at −80° C.
Liver triglyceride content was measured in the following manner.
1. A portion (50 to 150 mg) of each liver frozen and stored at −80° C. was taken to an Assist tube. 2. After addition of methanol (2 mL), the liver sample was homogenized with a POLYTRON (KINEMATICA). 3. To the homogenate, chloroform (4 mL) was added and vigorously stirred at room temperature for 10 minutes. 4. Milli-Q water (1 mL) was further added and vigorously stirred. 5. The sample was centrifuged in a low speed centrifuge (Hitachi, Ltd., Japan) (2,500 rpm, 5 min, room temperature). 6. A portion of the lower layer (total volume: 4.5 mL) was taken to an Eppendorf tube and evaporated in a centrifugal evaporator (Sakuma Seisakusho, Japan) to remove the solvent. 7. The residue in the Eppendorf tube was dissolved again by addition of ethanol (10 μL). 8. Triglyceride E-Test Wako reagent (1 mL, Wako Pure Chemical Industries, Ltd., Japan) was added to the resulting solution, and triglycerides were quantified. 9. From the result obtained above, the triglyceride content per g of liver was calculated for each sample. The data were expressed as mean±standard error.
(§1) The test was conducted in the same manner as shown in Example 1, except that this test was conducted with 3 groups of 8 animals, and the first group was administered with vehicle (0.5% methylcellulose) at a dose of 10 mL/kg, the second group was administered with a co-crystal (1:1 molar ratio) of (1S)-1,5-anhydro-1-[3-(1-benzothiophen-2-ylmethyl)-4-fluorophenyl]-D-glucitol (Compound B) and L-proline at a dose of 3 mg/kg (calculated as Compound B), and the third group was administered with a control compound, 2-(4-methoxybenzyl)phenyl 6-O-ethoxycarbonyl-β-D-glucopyranoside (hereinafter also referred to as Compound X, whose structural formula is shown below) disclosed in Patent Document 1 (supra) at a dose of 36 mg/kg, each being administered orally once a day for 2 weeks. Then, the liver triglyceride content was measured for each group in the same manner as shown in Example 1.
as §1, with “Compound B” for “(1S)-1,5-anhydro-1-[3-(1-benzothiophen-2-ylmethyl)-4-fluorophenyl]-D-glucitol (Compound B)”, “T-1095 disclosed in Patent Document 2 (supra), i.e., 3-(benzo[b]furan-5-yl)-2′,6′-dihydroxy-4′-methylpropiophenone 2′-O-(6-O-methoxycarbonyl)-β-D-glucopyranoside” for “2-(4-methoxybenzyl)phenyl 6-O-ethoxycarbonyl-β-D-glucopyranoside”, “Y,” for “X,”, “below)” for “below) disclosed in Patent Document 1 (supra)”, “34” for “36”
The test was conducted in the same manner as shown in Example 1. […]

SGLT = conditions: disclosed in Patent Documents 3, 5 and 6; cited from earlier work
[1] = system: CDAA diet-fed Wistar rats; assay: Nonalcoholic steatohepatitis model, CDAA diet-fed rats: hepatic fibrosis score; type: in vivo; conditions: Example 5, FIG. 3; co-crystal of Compound B and L-proline 3 mg/kg orally once a day for 5 weeks; five-point scale 0-4; versus CDAA diet vehicle group
Protocol: This test was conducted by reference to a document (Biochem Biophys Res Commun., 2004, 315(1), 187-195). Wistar rats (male, purchased from Charles River Japan, Inc.) were used. The rats were fed with CDAA diet (choline-deficient L-amino acid-defined diet (Choline Deficient and Iron Supplemented L-Amino Acid Defined Rat Diet, Dyets)) or normal control diet (Choline and Iron Supplemented L-Amino Acid Defined Rat Diet, Dyets) ad libitum. At 9 weeks of age, they were measured for their body weight and divided into groups of equal body weight, followed by initiation of the test (10 animals per group). […] The second and third groups were fed with CDAA diet, and the second group was administered with vehicle (0.5% methylcellulose) at a dose of 5 mL/kg, while the third group was administered with a co-crystal (1:1 molar ratio) of Compound B and L-proline at a dose of 3 mg/kg (calculated as Compound B). […] After a portion of the liver was fixed in 10% neutral buffered formalin, paraffin sections (3 μm) were prepared in a standard manner and subjected to van Gieson staining Fibrosis was evaluated by reference to the Brunt classification (Clinical Practice Guidelines for NASH/NAFLD, edited by the Japan Society of Hepatology, 2006), based on a five-point scale of 0, 1, 2, 3 and 4 (see Table 4).

MCD diet-fed Wistar rats = assay: Nonalcoholic steatohepatitis model, MCD diet-fed rats: liver histopathology scores; type: in vivo; conditions: co-crystal of Compound B and L-proline 3 mg/kg orally once a day for 16 weeks, five-point scale 0-4, versus MCD diet vehicle group
Protocol: This test was conducted by reference to a document (J. Hepatol., 2003, 39, 756-764). Wistar rats (male, purchased from Charles River Japan, Inc.) were used. The rats were fed with MCD diet (methionine/choline-deficient diet, MP Biochemicals) or normal control diet (methionine/choline control diet, MP Biochemicals) ad libitum. At 9 weeks of age, they were measured for their body weight and divided into groups of equal body weight, followed by initiation of the test (10 animals per group). The first group was fed with normal control diet and administered with vehicle (0.5% methylcellulose) at a dose of 5 mL/kg. The second and third groups were fed with MCD diet, and the second group was administered with vehicle (0.5% methylcellulose) at a dose of 5 mL/kg, while the third group was administered with a co-crystal (1:1 molar ratio) of Compound B and L-proline at a dose of 3 mg/kg (calculated as Compound B). Each drug was administered orally once a day for 16 weeks. On the day following the final administration, the liver was collected from each rat under ether anesthesia and a portion of the liver was fixed in 10% neutral buffered formalin. […]

db/db mice = conditions: disclosed in Patent Document 2; cited from earlier work

SMILES: OC[C@H]1O[C@@H](c2cc(Cc3cc4cccccc-4c3)ccc2O)[C@H](O)[C@@H](O)[C@@H]1O [Compound A, (1S)-1,5-anhydro-1-[5-(azulen-2-ylmethyl)-2-hydroxyphenyl]-D-glucitol]
- Effect on liver triglyceride content (in words) (KK-A^y mice; Example 1, 3 mg/kg orally once a day for 2 weeks): significantly improved
- Liver triglyceride content (KK-A^y mice; Example 1, choline salt of Compound A, 3 mg/kg (calculated as Compound A) orally once a day for 2 weeks, vehicle 60.0 ± 8.4): 30.7 ± 5.4 mg/g liver
- SGLT inhibitory activity (SGLT): shows SGLT inhibitory activity

SMILES: OC[C@H]1O[C@@H](c2ccc(F)c(Cc3cc4ccccc4s3)c2)[C@H](O)[C@@H](O)[C@@H]1O [Compound B, (1S)-1,5-anhydro-1-[3-(1-benzothiophen-2-ylmethyl)-4-fluorophenyl]-D-glucitol]
- Effect on liver triglyceride content (in words) (KK-A^y mice; Example 2, 3 mg/kg orally once a day for 2 weeks): significantly improved
- Liver triglyceride content (KK-A^y mice; Example 2, co-crystal of Compound B and L-proline, 3 mg/kg (calculated as Compound B) orally once a day for 2 weeks, vehicle 52.8 ± 4.9): 34.8 ± 1.9 mg/g liver
- Effect on liver triglyceride content (in words) (KK-A^y mice; Example 3, 3 mg/kg orally once a day for 2 weeks): significantly improved
- Liver triglyceride content (KK-A^y mice; Example 3, co-crystal of Compound B and L-proline, 3 mg/kg (calculated as Compound B) orally once a day for 2 weeks, vehicle 59.7 ± 6.2): 41.2 ± 5.1 mg/g liver
- Pathological score of hepatic fibrosis [1]: significantly improved
- Pathological score of inflammatory cell infiltration (MCD diet-fed Wistar rats; Example 4, FIG. 1): significantly improved
- Pathological score of hepatic fibrosis (MCD diet-fed Wistar rats; Example 4, FIG. 2): significantly improved
- SGLT inhibitory activity (SGLT): shows SGLT inhibitory activity

SMILES: CCOc1ccc(Cc2cc([C@@H]3O[C@H](CO)[C@@H](O)[C@H](O)[C@H]3O)ccc2Cl)cc1 [Compound C, (1S)-1,5-anhydro-1-[4-chloro-3-(4-ethoxybenzyl)phenyl]-D-glucitol]
- Effect on liver triglyceride content (in words) (KK-A^y mice; Example 6, 3 mg/kg orally once a day for 2 weeks): significantly improved
- Liver triglyceride content (KK-A^y mice; Example 6, 3 mg/kg orally once a day for 2 weeks, vehicle 60.2 ± 7.1): 28.6 ± 3.9 mg/g liver

SMILES: CCOC(=O)OC[C@H]1O[C@@H](Oc2ccccc2Cc2ccc(OC)cc2)[C@H](O)[C@@H](O)[C@@H]1O [Compound X, 2-(4-methoxybenzyl)phenyl 6-O-ethoxycarbonyl-β-D-glucopyranoside, reference compound]
- Liver triglyceride content (KK-A^y mice; Example 2, 3 mg/kg orally once a day for 2 weeks, vehicle 52.8 ± 4.9): 57.9 ± 4.5 mg/g liver
- Effect on liver triglyceride content (in words) (KK-A^y mice; Example 2, 36 mg/kg orally once a day for 2 weeks): no significant effect
- Effect on liver triglyceride content (in words) (KK-A^y mice; Example 3, 34 mg/kg orally once a day for 2 weeks): no significant effect

SMILES: COC(=O)OC[C@H]1O[C@@H](Oc2cc(C)cc(O)c2C(=O)CCc2ccc3occc3c2)[C@H](O)[C@@H](O)[C@@H]1O [Compound Y, 3-(benzo[b]furan-5-yl)-2′,6′-dihydroxy-4′-methylpropiophenone 2′-O-(6-O-methoxycarbonyl)-β-D-glucopyranoside, reference compound]
- Liver triglyceride content (KK-A^y mice; Example 3, 34 mg/kg orally once a day for 2 weeks, vehicle 59.7 ± 6.2): 59.7 ± 8.9 mg/g liver
- Blood triglyceride levels (db/db mice): reduced blood triglyceride levels
